Measured values reported in US20220168307A1, “TREATMENT OF SMA” (Hoffmann-La Roche Inc., priority 2019, published 2022).

What was measured:
CYP2C8 = target: T1, CYP2C8 (Homo sapiens, UniProt P10632); experiment: Time-dependent inhibition (IC50 shift) of CYP2C8 in human liver microsomes; details: microsomes
T1 sequence (P10632 1-490): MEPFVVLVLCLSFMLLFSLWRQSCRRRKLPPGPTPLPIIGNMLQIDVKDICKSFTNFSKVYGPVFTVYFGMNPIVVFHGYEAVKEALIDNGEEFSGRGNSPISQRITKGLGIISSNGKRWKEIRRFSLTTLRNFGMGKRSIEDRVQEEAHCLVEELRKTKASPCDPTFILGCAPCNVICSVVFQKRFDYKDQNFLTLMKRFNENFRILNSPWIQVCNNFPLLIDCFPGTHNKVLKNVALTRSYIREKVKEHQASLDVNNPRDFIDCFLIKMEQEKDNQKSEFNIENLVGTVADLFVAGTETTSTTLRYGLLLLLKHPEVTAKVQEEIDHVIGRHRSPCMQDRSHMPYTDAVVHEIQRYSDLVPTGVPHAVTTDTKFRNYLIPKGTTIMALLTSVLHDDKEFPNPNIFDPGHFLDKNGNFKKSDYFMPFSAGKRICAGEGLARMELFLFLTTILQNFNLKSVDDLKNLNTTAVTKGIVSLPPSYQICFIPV
Procedure: Donors CMV negative for serology are unm
All incubations were conducted in duplicate.
% remaining=(C+I/C^−I)*100

CYP2B6 = target: T2, CYP2B6 (Homo sapiens, UniProt P20813); experiment: biochemical
T2 sequence (P20813 1-491): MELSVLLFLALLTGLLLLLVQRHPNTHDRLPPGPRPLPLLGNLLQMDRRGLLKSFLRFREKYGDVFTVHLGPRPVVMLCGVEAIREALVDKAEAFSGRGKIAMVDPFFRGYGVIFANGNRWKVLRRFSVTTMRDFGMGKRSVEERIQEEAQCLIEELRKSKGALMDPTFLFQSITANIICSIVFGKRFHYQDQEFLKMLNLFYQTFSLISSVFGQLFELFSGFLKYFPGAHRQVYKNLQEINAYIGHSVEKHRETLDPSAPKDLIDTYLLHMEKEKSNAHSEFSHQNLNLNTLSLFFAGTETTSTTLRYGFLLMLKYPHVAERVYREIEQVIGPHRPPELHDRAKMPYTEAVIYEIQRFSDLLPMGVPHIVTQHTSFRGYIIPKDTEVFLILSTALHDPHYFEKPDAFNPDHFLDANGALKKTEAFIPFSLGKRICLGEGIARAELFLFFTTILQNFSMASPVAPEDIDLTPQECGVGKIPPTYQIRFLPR

[1] = urine; cited from earlier work

## Cc1ccc(C)c(OCCCC(C)(C)C(=O)O[C@@H]2O[C@H](C(=O)O)[C@@H](O)[C@H](O)[C@H]2O)c1 [Gemfibrozil glucuronide, reference compound]
CYP2C8
  IC50: 760 nM

## CC(=O)N1CCN(c2ccc(OCC3COC(Cn4ccnc4)(c4ccc(Cl)cc4Cl)O3)cc2)CC1 (stereo not drawn) [Ketoconazole, reference compound]
CYP2B6
  IC50: 3400 nM

## Cc1ncc2n1-c1ccc(Cl)cc1C(c1ccccc1F)=NC2 [midazolam, 8-chloro-6-(2-fluorophenyl)-1-methyl-4H-imidazo[1,5-a][1,4]]
[1]
  dose excreted unchanged: 1%
